From PubChem BioAssay AID588569 (Sanford-Burnham Center for Chemical Genomics, 2011)
The source made the active and inactive calls.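 Rule for the calls: active = mean IC50 of 20 µM or lower in the 6 hour cytotoxicity test; inactive = the rest.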

test system: CHO-XBP1 cytotoxicity, ATPlite luminescence, 6 h; assay: CHO-XBP1 cell viability loss – 6 h exposure, ATPlite luminescence, cytotoxicity control for UPR adaptive arm activator project, SAR follow-up (AID 588569)

Compound | IC50
Cc1ccc(NC(=O)c2cc(-c3ccncc3)nc3ccccc23)cc1 | > 80 µM (inactive)
Cc1cc(Br)cc(NC(=O)c2cc(-c3ccncc3)nc3ccccc23)c1 | > 80 µM (inactive)
O=C(Nc1ccc(Br)c(C(F)(F)F)c1)c1cc(-c2ccncc2)nc2ccccc12 | > 80 µM (inactive)
O=C(Nc1ccc(Cl)cc1)c1cc(-c2ccncc2)nc2ccccc12 | 75.4 µM (inactive)
O=C(Nc1ccc(C(F)(F)F)cc1)c1cc(-c2ccncc2)nc2ccccc12 | 70.4 µM (inactive)
O=C(Nc1ccc(F)cc1)c1cc(-c2ccncc2)nc2ccccc12 | > 80 µM (inactive)
Cc1nc(Nc2nc(-c3ccccc3)cc(=O)[nH]2)nc2ccccc12 | 36.4 µM (inactive)
